Laboratory results from patent publication US10617679B2, “Deuterated compounds and medical uses thereof” (JINGLUWEIDAI INFORMATION CONSULTING SERVICE (BEIJING) CO. …, priority 2016, dated 2020).

Legend:
rat formalin model = test: Analgesic effects of intragastric administration in a rat formalin model; type: in vivo, SD rats; details: mean ± SD; for Reaction time for phase I: licking time 0-5 min after formalin; for Reaction time for Phase II: licking time 15-30 min after formalin
Experimental: SD rats (male, weight 160-180 g) were randomly divided into groups with 6 rats in each group. After the rats were intragastrically administered different doses separately, they were placed in PVC observation boxes for habituation. After 30 min, the rats were injected subcutaneously with 20 μL of 2.7% formalin solution into the plantar surface of the left hind paws, and quickly put back in the PVC observation boxes for observation. The length of time the rats spent licking the injected-formalin paws at the early response (0-5 min, phase I) and the late response (15-30 min, Phase II) was recorded, and the analgesic activities of the test compounds were evaluated according to the length of time the rats spent licking during the period of observation. The experimental data were expressed as mean±standard deviation. The shorter the licking time, the better the analgesic effect of the compound.

[1] = test system: rat chronic sciatic nerve compression neuralgia model; test: Analgesic effects of intragastric administration in a rat chronic sciatic nerve compression neuralgia model; type: in vivo, SD rats; details: pain threshold 1 hour after administration
Experimental: SD rats (male, weight 160-180 g) were anesthetized using sodium pentobarbital (40 mg/kg), of which the sciatic nerves were separated in the middle segment of the right hind limbs. In the anterior segment of the sciatic nerve to be bifurcated, the sciatic nerve was separated from the surrounding tissue using a sterile glass hook. Four rings were loosely ligated with sterile chrome gut (No. 4, 0.15 mm in diameter) by an interval of 1 to 2 mm. Topically sprinkled with penicillin powder. The muscle tissue and skin were sutured. The rats were placed in a cage with cork dust. In the sham surgery group, the sciatic nerve was only exposed, and the other treatments were the same as described above. The rats after surgery were placed in a metal cage. […] The weight of the filament was recorded and set to be the threshold (in g). Meanwhile, the number of foot-lifting response to the 10 stimulations of the fiber filaments of different weights was recorded, and the highest threshold was set at 26 g.
5-6 rats in each group were intragastrically administered and the pain thresholds were measured 1 hour after administration. Statistical analysis of the thresholds was performed using non-parametric Wilcoxon 2-Sample Test and Kruskal-Wallis Test, and the data was analyzed with SASS data processing software. Analgesic percent (%)=(pain threshold after drug treatment−pain threshold before drug treatment)/(maximal analgesia threshold−pain threshold before drug treatment)[…].

SMILES | Reaction time for phase I (rat formalin model; 20 mg/kg intragastric) [s] | Reaction time for Phase II (rat formalin model; 20 mg/kg intragastric) [s] | Reaction time for phase I (rat formalin model; 40 mg/kg intragastric) [s] | Reaction time for Phase II (rat formalin model; 40 mg/kg intragastric) [s] | Analgesic percent ([1]; 20 mg/kg intragastric) [%] | Analgesic percent ([1]; 40 mg/kg intragastric) [%]
[2H]C([2H])([2H])Oc1cc2c(cc1OC)CCN1Cc3c(ccc(OC)c3OC)C[C@@H]21 [Formula I3, (13a S)-3,9,10-trimethoxy-2-[(trideutero)-methoxy]-6,8,13,13a-tetrahydro-5H-isoquinolino[2,1-b]isoquinoline] | 79.6 ± 31.3 | 126.3 ± 29.6 | 45.1 ± 29.4 | 72.3 ± 37.8 | 44.80 | 68.67
[2H]C([2H])([2H])Oc1cc2c(cc1OC)[C@@H]1Cc3ccc(OC)c(OC)c3CN1CC2 [Formula I4, (13a S)-2,9,10-trimethoxy-3-[(trideutero)-methoxy]-6,8,13,13a-tetrahydro-5H-isoquinolino[2,1-b]isoquinoline] | 90.3 ± 29.0 | 151.2 ± 31.6 | 61.5 ± 36.6 | 74.3 ± 38.0 |  | 
[2H]C([2H])([2H])Oc1c(OC)ccc2c1CN1CCc3cc(OC)c(OC)cc3[C@@H]1C2 [Formula I1, (13a S)-2,3,10-trimethoxy-9-[(trideutero)-methoxy]-6,8,13,13a-tetrahydro-5H-isoquinolino[2,1-b]isoquinoline] | 82.4 ± 33.2 | 194.0 ± 35.7 | 42.6 ± 45.0 | 92.7 ± 25.1 |  | 
